Source: US8318489B2, “Prostacyclin directed differentiation of cardiomyocytes from human embryonic stem cells” (priority 2005, dated 2012)

Columns and labels:
Type in all cases: cell-based, human
hES cells [1] = experiment: Real time RT-PCR for cardiac markers (α-MHC, ANF)
Protocol: RNA extraction: EBs at the end of the twelve day period were harvested. […] Trizol (Invitrogen) was added before freezing the EBs at -80° C. to ease cell lysis. Frozen samples were thawed and […]. Chloroform was added to the sample and incubated for 3 min at room temperature. The sample was centrifuged for 15 min at 13000 rpm at 4° C. and the aqueous phase collected. An equal volume of 70% ethanol was added before the sample was loaded onto an RNeasy mini column (Qiagen). The column was centrifuged for 15 sec at ≧8000 g. The rest of the purification steps were performed according to manufacturer's instructions. RNA was eluted in RNase-free water. 5 μg of the RNA sample was then treated with DNase (Invitrogen) in a volume of 50 μl. The mixture was incubated at room temperature for 30 min and heat inactivated for 10 min at 80° C. before cooling rapidly on ice. […] Samples were incubated for 1 hour at 37° C. before the reaction was terminated for 5 min at 95° C. RT-PCR was performed using 100 ng of cDNA with the following conditions: Cycle 1 (40×) denaturation at 95° C. for 10 s, annealing at 58° C. for 30 s and extension at 72° C. for 45 s. Melting curve step was included at the end with the following conditions: […] The gene primers used are α-MHC (sense primer: […] NO: 1); antisense primer: […] (sense primer: […] NO: 3); antisense primer […] NO: 4)) and β-Actin (sense primer: […] […]

hES cells [2] = experiment: Embryoid body differentiation of hES cells, visual scoring of beating EBs; conditions: for CM induction activity (number of beating areas): growth factor 10 ng/ml added to END2-CM, day 12, compared to END2-CM alone; for effect on induction of cardiomyocytes: supplemented to DMEM3 (giving bSFS)
Protocol: This procedure describes the formation of embryoid bodies (EB) from collagenase-derived hES cell cultures. After formation the EBs were then exposed to END2 conditioned medium (CM).
Enzymatically passaged hES cells grown on feeder cells were washed once with PBS^+ and treated with Collagenase IV (1 mg/ml) for 3-4 min at 37° C. The Collagenase IV solution was replaced by DMEM and the cells were mechanically dissociated with a pipette tip. Cells were then harvested using a cell scraper and the cell suspension was transferred to a 50 ml tube (Falcon). Cell clumps were collected by gravity and the supernatant was aspirated. Cells were resuspended in fresh DMEM medium aiming to uniformly disperse the cell clumps in the suspension. An equal volume of the cell suspension was then transferred to ultra low attachment plates (Costar). Usually 6-well plates were used and cells were cultured in 2 ml of medium. Alternatively, cells can be seeded into plates under conditions supporting cell adherence to induce differentiation of hES cells attached to a surface.
In suspension culture, EBs are formed in ultra low attachment plates in SF medium over night. After over night incubation SF medium was replaced by fresh SF medium or END2-CM respectively for further differentiation. Subsequent medium changes were performed every 3-4 days. Usually, cells were cultured over a period of 12-13 days before the visual analysis of the proportion of beating EBs under a microscope was performed followed by cell collection for additional readouts. Multiple beating areas on single EBs were not counted separately. Values are expressed as a percentage of contracting EBs compared to […] in a single well of a 6-well tray. Cell harvest and analysis at time points other then 12-13 days after EB formation is indicated in the respective examples and figures of this embodiment. For EB scoring and other analytical methods hES cell differentiation was performed in triplicates applying the same culture conditions (e.g. the same medium added) in 3 independent wells of a 6-well plate. An average value per well was calculated and presented.

hES cells [3] = experiment: Cardiomyocyte quantification via cytospin (MF-20 / αMHC staining); conditions: for cardiomyocyte yield compared to bSFS alone: L-IGF-I 5.0 ng/ml, AA 5.0 μM, FGF2 […] into bSFS
Protocol: EBs were washed twice with PBS (without calcium and magnesium) and dissociated to single cells using trypsin (Invitrogen). […] The cell pellet was resuspended in PBS and a cell count performed. 100,000 cells were spun at 500 rpm for 5 min onto glass slides at low acceleration using a cytospin system (Shandon). Adherent cells were fixed, stained and the total cell number (DAPI staining of cell nuclei) and the number of sarcomeric alpha myosin heavy chain positive cells (αMHC, MF-20 Ab, Hybridoma Bank, Iowa; 1:200 followed by respective rabbit-anti mouse Cy3-labeled secondary Ab 1:500, Zymed) were counted in at least 3 independent fields of view at 20× magnification with at least 300 nuclei per field; fields were randomly selected in the DAPI channel (Zeiss Axiovert 200M, Zeiss) avoiding bias towards cardiomyocyte content. The percentage of cardiomyocytes compared to the total cell nuclei number was calculated.
Readouts were performed on day 13. […] The percentage of cardiomyocytes was counted via cytospin and the cardiomyocyte yield was calculated from the total cell count per well and the percentage of cardiomyocytes. Results are presented in Table 2 which provides an analysis on day 12 EBs differentiated in the presence of respective media added with substances as indicated in the table. Differentiation was performed in suspension in a low attachment 6-well format. Average numbers per well of a 6-well plate are presented.

H3M11 cardiomyocytes = experiment: Microelectrode array recording of selected cardiomyocytes; conditions: 10 μM isoproterenol; from 46 beats/min before addition
Excerpt: H3M11, one of the transgenic hES lines carrying the mouse α-MHCneo transgene, was differentiated in END-2 conditioned media to induce cardiomyocytes and then selected with G418 for 1 week. G418-selected H3M11 cardiomyocytes were dissociated and plated on microelectrode array chips each containing 64 electrodes (Multi Channel Systems MCS GmbH, Reutlingen, Germany). Extracellular recordings were made with the MEA1060 amplifier and MC-Rack software. Sampling rate was 10 kHz. A control recording was made before addition of compounds.

[4] = system: Transgenic hES cells carrying α-MHCneo; experiment: G418 selection of transgenic hES-derived cardiomyocytes, MF-20 staining
Protocol: Transgenic hES cells carrying α-MHCneo were differentiated in END-2 conditioned media as described in Example 8 and then selected with 200 µg/ml or 400 μg/ml G418 for various periods. Cells were dissociated by trypsin and plated onto chamber slides. Transgenic cardiomyocytes that were not selected with G418 were also plated as a control. Cells were then fixed by 2% paraformaldehyde and stained with the MF-20 antibody, which recognizes cardiac α-MHC. Cells were counterstained with haematoxylin to reveal nuclei. Cells […] for MF-20 staining in each slide preparation were counted and calculated as a percentage of total nuclei.

[5] = insulin 0.1-10 μg/ml added to END2-CM

Molecule: CCCCC[C@H](O)/C=C/[C@@H]1[C@H]2C/C(=C/CCCC(=O)[O-])O[C@H]2C[C@H]1O.[Na+] [PGI2, (5Z,9α,11α,13E,15S)-6,9-Epoxy-11,15-dihydroxyprosta-5,13-dien-1-oic acid Sodium salt]
- expression of cardiomyocyte marker genes α-MHC and ANF (hES cells [1]; bSFS+PGI2 compared to END-CM): equivalent, if not enhanced expression
- cardiomyocyte inducing activity (hES cells [2]; PGI2 0.2 and 2.0 μM in bSFS): increase in cardiomyocyte inducing activity to levels similar to that observed with END2-CM
- percentage of beating EBs (hES cells [2]; PGI2 2, 20, 200, 2000 nM in DMEM3, day 12, in comparison with basic DMEM3): significant increases
- percentage of the overall cell population that forms cardiomyocytes (hES cells [3]; bSFS+PGI2, cytospin MF20): equivalent to that observed in END2-CM cultures

Molecule: CC(=O)O [AA, acetic acid]
- cardiomyocyte yield compared to bSFS alone (hES cells [3]): some increase

Molecule: insulin: Insulin (Roche) spiked into END2-CM
- relative expression of early cardiomyocyte markers (MesP1, NRx2.5, ANF, α-MHC) (hES cells [1]; [5]): dose dependent decrease in expression
- cardiomyocyte formation from hESC (hES cells [2]; insulin 10 μg/ml added to END2-CM): complete inhibition
- cardiomyocyte formation from hESC (hES cells [2]; [5]): dose dependent inhibition

Molecule: CC(C)NCC(O)c1ccc(O)c(O)c1 (stereo not shown) [isoproterenol]
- beating frequency (H3M11 cardiomyocytes): 70 beats/min

Molecule: CN[C@@H]1[C@@H](O)[C@@H](O[C@@H]2[C@@H](O)[C@H](O[C@H]3O[C@H]([C@@H](C)O)[C@@H](O)[C@H](O)[C@H]3N)[C@@H](N)C[C@H]2N)OC[C@]1(C)O [G418]
- Percent cardiomyocytes ([4]; G418 200 μg/ml for 10 days): 99.02%
- Percent cardiomyocytes ([4]; G418 200 μg/ml for 16 days): 99.20%
- Percent cardiomyocytes ([4]; G418 400 μg/ml 13 days): 99.53%
- Percent cardiomyocytes ([4]; G418 400 μg/ml for 7 days): 99.85%
- cells positive for the cardiac marker ([4]; two different G418 concentrations for various days): greater than 99%

Molecule: Scf: recombinant human Scf, stem cell factor (CytoLab)
- CM induction activity (number of beating areas) (hES cells [2]): enhance CM induction activity

Molecule: Transferrin: medium supplement, 0.0055 mg/ml Transferrin (Roche)
- effect on induction of cardiomyocytes (hES cells [2]): not inhibitory

Molecule: Igf2: recombinant human Igf2 (R&D)
- CM induction activity (number of beating areas) (hES cells [2]): enhance CM induction activity

Molecule: O=[Se]([O-])[O-].[Na+].[Na+] [Selenium, sodium Selenite]
- effect on induction of cardiomyocytes (hES cells [2]): not inhibitory

Molecule: FGF2: Basic Fibroblast Growth Factor; Invitrogen
- cardiomyocyte yield compared to bSFS alone (hES cells [3]): some increase
